The values below are quoted from earlier work in patent publication US20120101089A1, “Anti-Emetic Substance” (priority 2010, published 2012).

The conditions of series [1]: 10 mg intravenously.
For series [2] the following is noted: common adverse effects associated with single agents, listed per class.
The conditions of series [3]: 15 mg and 0.15 mg/kg i.v. immediately after umbilical cord clamped; lidocaine, morphine epidural.

In the case of `CCN(CC)CCNC(=O)c1cc(Cl)c(N)cc1OC` [metoclopramide, Metoclopramide], in series [1], the “treatment of PONV versus comparators” value is “as effective as intravenous droperidol 1.25 mg and more effective than intravenous propofol 10 mg”. Besides, the “Adverse Effect” value in series [2] was “Sedation, EPS, restlessness,”. Moreover, for the setting “additional 10 to 20 mg i.m. at the end of the operation”, the “effect on emetic effects of opioids” value is on record as “reduced the emetic effects of pethidine, but had less effect when morphine was given”. Where the note is “preoperative 10 and 20 mg intramuscularly”, the “effect on pre-anaesthetic emetic effects of pethidine” value is reported as “abolished the pre-anaesthetic emetic effects of pethidine”. For the same compound, the “incidence of nausea and vomiting” value in series [3] is “effectively reduce the incidence of nausea and vomiting”.
